Source: US20240116910A1, “Heterocycles as WIP1 Inhibitors” (PMV Pharmaceuticals, Inc., priority 2022, published 2024)

Each compound was assayed against recombinant His-tag Wip1(2-420) protein (amino acids #2-420) (Homo sapiens (Human), UniProt O15297) (assay: Wip1(2-420) phosphatase enzyme FDP assay). Settings: fluorescein diphosphate (FDP) substrate, RT 2 hours, fluorescence Ex485/Em535; read-out: WIP1 (Truncated 2-420) FDP Assay: IC50.
recombinant His-tag Wip1(2-420) protein (amino acids #2-420), sequence (O15297 2-420): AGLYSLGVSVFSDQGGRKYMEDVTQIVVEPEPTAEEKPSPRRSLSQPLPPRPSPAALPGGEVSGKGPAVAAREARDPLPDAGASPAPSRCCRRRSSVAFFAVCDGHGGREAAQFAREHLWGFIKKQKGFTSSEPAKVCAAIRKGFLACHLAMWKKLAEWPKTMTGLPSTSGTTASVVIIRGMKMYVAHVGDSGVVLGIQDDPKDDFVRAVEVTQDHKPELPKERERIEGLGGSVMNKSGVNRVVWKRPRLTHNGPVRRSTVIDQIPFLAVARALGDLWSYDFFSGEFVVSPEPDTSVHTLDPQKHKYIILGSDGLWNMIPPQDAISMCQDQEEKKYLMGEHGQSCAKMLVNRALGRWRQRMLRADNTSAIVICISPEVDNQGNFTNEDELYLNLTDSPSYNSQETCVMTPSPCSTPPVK
Assay type: biochemical
Method: The Human Wip1 (2-420, aa 2-420) or Wip1 full length (aa 1-605) DNA sequence was codon optimized and synthesized by Genscript for insect cell expression. The open reading frame of Wip1(2-420) with a N-terminal-His6 affinity tag followed by a TEV cleavage site was subcloned sites into the pFastBac1 expression vector. The recombinant bacmid DNA was transfected in Sf9 insect cells for baculovirus production. After 72 hours infection, the Sf9 cells were harvested by centrifugation and resuspended in lysis buffer containing 50 mM Tris/HCl, pH 8.0, 500 mM NaCl, 20% glycerol, Benzonase 0.5% CHAPS and Roche cOmplete™ EDTA free protease inhibitors. Cells were disrupted with microfluidizer and the debris was removed by centrifugation at 185,000 g for 1 hour. The supernatant was subjected to HisTrap FF for affinity purification. Proteins were eluted with a linear gradient of 0-500 mM imidazole in HisTrap buffer containing 50 mM Tris/HCl, pH 8.0, 500 mM NaCl and 20% glycerol, 0.05% CHAPS. The eluted protein was dialyzed against dialysis buffer (20 mM MES, 100 mM NaCl, 20% glycerol, 0.5 mM TCEP, 0.05% CHAPS) followed purification via HiTrap SP HP column. The protein was eluted with a gradient of 100 mM-2 M NaCl in dialysis buffer. His6-[…] was finally concentrated and loaded onto a size-exclusion column (NiLoad 16/600 Superdex 200 pg, GE Healthcare) pre-equilibrated with 50 mM MOPS (pH 7.5), 200 mM NaCl, 20% glycerol, 1 mM TCEP, 0.05% CHAPS and 0.1 mM EGTA. The peak fractions containing purified Nis6-Wip1(2-420) were pooled and concentrated to 1.0 mg/mL and flash frozen at −80° C.
Wip1 Length and Wip1(2-420) Phosphatase Enzyme FDP Assays.
Test compounds (252 mM stock in DMSO) were diluted 3 folds in series in DMSO and 1.2 μl per well were added into 384-well polypropylene black plates (Nunc). Twelve μl per well of Assay Buffer (100 mM NaCl, 50 mM MOPS, pH 7.5, 0.8 mM CHAPS, 0.1 mM EGTA, 30 mM MgCl2, 0.3 mM TCEP, 0.2 mg/mL BSA) was added followed by […] per well of 50.4 nM recombinant His-tag Wip1 full length protein (amino acids #1-605) or recombinant His-tag Wip1(2-420) protein (amino acids #2-420) in Assay Buffer and the plate was incubated at RT (22° C.) for 5 min. Ten mM of fluorescein diphosphate (FDP) in DMSO was diluted to […] in Assay Buffer and […] per well was added to the plate and incubated at RT (22° C.) for 2 hours. […] per well of 64.1 mM EDTA in water were added to stop the enzyme reaction. The plate was centrifuged at 1,200 rpm (Eppendorf 5810R Plate centrifuge) for 1 minute and fluorescence intensity (Ex485/Em535) was measured on Perkin Elmer Victor Reader. EC50 values were calculated using either Prism (GraphPad) or ActivityBase software (IDBS), The IC50 results are provided in Table M.
`Cc1ncc(Cl)cc1N[C@@H](C)c1ccc(C(=O)N[C@@H](CC2CCC3CC32)C(=O)NC2CC2)s1` (stereo in doubt) [Compound 273, (2S)-3-[(2S)-bicyclo[3.1.0]hexan-2-yl]-2-({5-[(1S)-1-[(5-chloro-2-methylpyridin-3-yl)amino]ethyl]thiophen-2-yl}formamido)-N-cyclopropylpropanamide] was tested, and the IC50 was 0.007 µM.
`Cc1ncc(Cl)cc1N[C@H](C)c1ccc(C(=O)N[C@@H](CC2CCCC2)C(=O)NC2CC2)s1` [Compound 9, 5-[(1R)-1-[(5-chloro-2-methyl-3-pyridyl)amino]ethyl]-N-[(1S)-1-(cyclopentylmethyl)-2-(cyclopropylamino)-2-oxo-ethyl]thiophene-2-carboxamide] was tested, and the IC50 was 0.411 µM.
`Cc1ncc(Cl)cc1N[C@H](C)c1ccc(C(=O)N[C@@H](CC2CCCC2)C(=O)N[C@@H]2CC2(F)F)s1` [Compound 22, (2S)-2-({5-[(1R)-1-[(5-chloro-2-methylpyridin-3-yl)amino]ethyl]thiophen-2-yl}formamido)-3-cyclopentyl-N-[(1R)-2,2-difluorocyclopropyl]propanamide] gave an IC50 of 0.314 µM.
With `COc1ncc(Cl)cc1N[C@H](C)c1ccc(C(=O)N[C@@H](CC2CCCC2)C(=O)NC2CC2)s1` [Compound 35, (2S)-2-({5-[(1R)-1-[(5-chloro-2-methoxypyridin-3-yl)amino]ethyl]thiophen-2-yl}formamido)-3-cyclopentyl-N-cyclopropylpropanamide] the IC50 was 0.301 µM.
`COc1ncc(Cl)cc1N[C@H](C)c1ccc(C(=O)N[C@@H](CC2CCCC2)C(=O)NC23CC(C2)C3)s1` [Compound 61, (2S)-N-{bicyclo[1.1.1]pentan-1-yl}-2-({5-[(1R)-1-[(5-chloro-2-methoxypyridin-3-yl)amino]ethyl]thiophen-2-yl}formamido)-3-cyclopentylpropanamide] gave an IC50 of 0.5 µM.
Compound `CC[C@@H](Nc1cc(Cl)cnc1C)c1ccc(C(=O)N[C@@H](CC2CCCC2)C(=O)NC23CC(C2)C3)s1` [Compound 67, (2S)-N-{bicyclo[1.1.1]pentan-1-yl}-2-({5-[(1R)-1-[(5-chloro-2-methylpyridin-3-yl)amino]propyl]thiophen-2-yl}formamido)-3-cyclopentylpropanamide] has an IC50 of 0.27 µM.
`CC[C@@H](Nc1cc(Cl)cnc1C)c1ccc(C(=O)N[C@@H](CC2CCCC2)C(=O)NC23CC(C#N)(C2)C3)s1` [Compound 81, (2S)-2-({5-[(1R)-1-[(5-chloro-2-methylpyridin-3-yl)amino]propyl]thiophen-2-yl}formamido)-N-{3-cyanobicyclo[1.1.1]pentan-1-yl}-3-cyclopentylpropanamide] gave an IC50 of 0.693 µM.
In the case of `COc1ncc(Cl)cc1N[C@H](C)c1ccc(C(=O)N[C@@H](CC2CCCC2)C(=O)NC23CC(C#N)(C2)C3)s1` [Compound 83, (2S)-2-({5-[(1R)-1-[(5-chloro-2-methoxypyridin-3-yl)amino]ethyl]thiophen-2-yl}formamido)-N-{3-cyanobicyclo[1.1.1]pentan-1-yl}-3-cyclopentylpropanamide], the IC50 is reported as 0.484 µM.
Work on `Cc1ncc(Cl)cc1N[C@@H](C)c1ccc(C(=O)N[C@@H](CC2CCCC2)C(=O)NC(C)C)s1` [Compound 84, (2S)-2-({5-[(1S)-1-[(5-chloro-2-methylpyridin-3-yl)amino]ethyl]thiophen-2-yl}formamido)-3-cyclopentyl-N-(propan-2-yl)propanamide] yielded an IC50 of 0.008 µM.
`Cc1ncc(Cl)cc1N[C@@H](C)c1ccc(C(=O)N[C@@H](CC2CCCC2)C(=O)Nc2ccc(C#N)cc2)s1` [Compound 85, (2S)-2-({5-[(1S)-1-[(5-chloro-2-methylpyridin-3-yl)amino]ethyl]thiophen-2-yl}formamido)-N-(4-cyanophenyl)-3-cyclopentylpropanamide] was tested, and the IC50 was 0.007 µM.
For `Cc1cccc(NC(=O)[C@H](CC2CCCC2)NC(=O)c2ccc([C@H](C)Nc3cc(Cl)cnc3C)s2)n1` [Compound 86], the IC50 was 0.008 µM.
